Assay results reported in US11319306B2, “Compositions and methods for treating neurodegenerative diseases” (Azevan Pharmaceuticals, Inc., priority 2014, dated 2022).
Where two headings read alike, the source gives them in different places.

Experiments:
C57Bl/6J males = assay: Social interaction test after chronic social subjugation; type: in vivo, mice
Description: Anti-depressant Effect in the Social Interaction Test. […] A rapid subjugation paradigm in mice lead to diminished social interaction behavior, where the dependent measures are distance traveled and time in the Interaction Zone. A 28-day treatment regimen with chlordiazepoxide (CDP), a standard anxiolytic, had no effect on deficits produced by chronic subordination. Additional details are described in Berton et al. Essential role of BDNF in the mesolimbic dopamine pathway in social defeat stress. Science 311(5762):864-8 (Feb. 10, 2006).
Briefly, C57Bl/6J males are defeated daily for 10 days by resident, highly aggressive CF-1 males. After 5 minutes of direct exposure, a perforated plastic partition is inserted into the cage that allowed olfactory and visual contact without physical defeat for the remaining 23 hr 55 min each day. The C57 males are exposed to a different resident male in a different cage each day to increase the stress of the procedure (it is observed that all CF-1 males attacked the intruder each day). At the end of the 10 day defeat procedure, the C57 males are tested in an open field apparatus during the dark phase. A dominant male is caged in an area of the open field apparatus termed the “social interaction zone.” Time and distance traveled in the zone are recorded. The C57 males are then divided randomly among the following treatments: AVN246-HCl (2 mg/kg), saline vehicle (0.45%), or chlordiazepoxide (10 mg/kg). Treatments are given daily (i.p.) for 28 days and the animals are retested. Behavioral changes are determined by calculating difference scores (Post-Pretest) and these scores are analyzed.

human brain = assay: fMRI BOLD imaging of test subjects given intranasal AVP (neurodegenerative disease model), emotional faces task; type: in vivo; conditions: following IN-AVP, compared to placebo
Protocol: Neurodegenerative disease (ND) model. Test subjects are randomized to an ND model group (for example, n=15), and a baseline control group (for example, n=14). The ND model group is administered intranasal arginine vasopressin (IN-AVP), 40 IU Pitressin (JHP Pharmaceuticals) in a sterile aqueous solution. IN-AVP doses are administered in 3 mL intranasal atomizers (MAD300; Wolfe Tory Medical, Salt Lake City) 45 minutes prior to fMRI imaging. The baseline control group is administered intranasal vehicle only. All test subjects are evaluated by fMRI imaging.
fMRI imaging. Data are acquired with a Philips Achieva Quasar dual 16 Channel 3T MRI scanner at the University of Chicago Brain Research Imaging Center using a reverse spiral imaging sequence to minimize ventral brain signal dropout. […] Categories include: angry faces, neutral faces, happy faces, and a fixation point. Test subjects are given the “implicit” task of identifying the gender of each image by button press. Statistical parametric maps are generated based on pre-processed 3 mm^3 images that are spatially smoothed with an 8 mm kernel, bandpass filtered to remove drift, checked for excessive movement, and movement-corrected. Images from each individual are warped to an echoplanar image template in Montreal Neurological Institute space. Voxelwise whole brain analysis is conducted on data thresholded at >10 contiguous voxels, with small volume correction p<0.05, to examine effects of test compound versus placebo on BOLD activity in a priori regions of interest (ROI). ROIs of the identified clusters of BOLD differences are extracted as parameter estimates of average BOLD signal intensity in anatomically defined substructures and exported into SPSS (IBM; Armont, N.Y.) for ANCOVA, covarying for baseline parameter estimates in matching ROIs. Extracted parameter estimates of a priori ROIs are also examined with RM-ANOVA in SPSS with the within subjects factor and between subjects factors of all combinations of test compound versus placebo, and IN-AVP versus intranasal placebo. Comparisons are made between emotion conditions (angry faces) and various neutral conditions (neutral faces, happy faces, fixation points). Comparisons are also made between emotion conditions (neutral faces) and various neutral conditions (happy faces, fixation points).
Neuropsychiatric symptom treatment with vasopressin antagonists. A first group of test subjects in a baseline control group receiving intranasal placebo is randomized to test compound or placebo. A second group of test subjects in a ND model group receiving IN-AVP is randomized to test compound or placebo. Test compound, such as SRX228, SRX246, SRX251, SRX296, or SRX576, or placebo is administered in blinded form for 5-10 days (mean 7.3+/−1.3 days; minimum 5 days; […]) prior to fMRI. Alternatively, test compound, such as SRX228, SRX246, SRX251, SRX296, and SRX576, or placebo is administered in blinded form after IN-AVP or intranasal placebo administration, and prior to fMRI. […] For example, test compound is SRX246 (n=15; 80, 120, or 160 mg po bid) versus placebo (n=14) in oral capsules; or test compound is SRX251 (n=15; 80, 120, or 160 mg po bid) versus placebo (n=14) in oral capsules.

awake rats = assay: Resident-intruder model of stress and aggression in rats, awake fMRI neuroimaging; type: in vivo, rat; conditions: for stress/arousal response in amygdala, cortex, hippocampus and thalamus: pretreatment 5 mg/kg 90 minutes before test session, mate + intruder
Description: Resident-intruder model of stress and aggression in rats. Neuroimaging is used to assess the blockade of stress/arousal with test compound compared to control. The effect of AVN251-HCl on functional circuitry was examined using the imaging method for awake rats. Additional details of the assay are described in Ferris et al. Imaging the neural circuitry and chemical control of aggressive motivation.
Male rats in the company of a female cage mate piloerect in the presence of a male intruder. Piloerection is a sign of stress and aggressive intent and is associated with activation of stress/arousal circuits in the brain. Stress circuit activation in response to an intruder male is assessed by obtaining brain scans viewed from a caudal/dorsal perspective as translucent shells. The localization of activated voxels is mapped as 3D volumes of activation, which are composed of 10 subjects each. Once fully registered and segmented, the statistical responses for each subject are averaged on a voxel-by-voxel basis. Those averaged voxels exceeding a 2.0% threshold are shown in their appropriate spatial location. Functional images are acquired on awake rats at 4.7 T.
Resident male rats from six male/female pairs are imaged while fully awake, and presented with their mate, or their mate+an intruder, a highly stressful stimulus. […] The total volume of brain activation for resident males confronted with their mate alone, mate plus intruder, and mate plus intruder in the presence of AVN251-HCl are viewed as 3D models.
Awake rats are imaged when presented with their mate, or their mate+an intruder. […] In each scan, the dark shaded areas represent activation of vasopressin receptor signaling.

Pharmacokinetics = type: in vivo; conditions: b.i.d. dosing
Description: Pharmacokinetics. Compounds described herein are rapidly absorbed after oral administration. Compounds described herein cross the blood-brain-barrier and achieve therapeutically effective concentrations in the CNS. Compounds described herein may be dosed according to a wide variety of protocols, including but not limited to q.d., b.i.d., and the like.

human V1a receptor = molecular target: T1, human V1a receptor (Homo sapiens, UniProt P37288); assay: Human vasopressin V1a receptor binding assay (3H-AVP competition, hV1a CHO cells)
T1 construct: host or cells: CHO cells (hV1a cell line)
In short: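 Whole CHO cells expressing hV1a were incubated with 1 nM 3H-AVP (as printed "InM") and 10-fold dilutions of compound in HEPES/BSA/DMEM buffer, pH 7.0, for 45 min at 37 °C. Non-specific binding was defined with 100 nM cold AVP. Bound radioactivity was SDS-solubilised and counted by scintillation; IC50 from curve fitting.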

[1] = test system: Adult male Long Evans rats; assay: Light/dark shuttle box; type: in vivo, rat
Protocol: Anxiolytic Effect in the Light/Dark Shuttle Box. The light/dark shuttle box is a standard and well characterized assay for anxiolytic effects of a test compound. Rats naturally avoid the light side of the box because it is stressful. Increased time on the light side by the treatment group compared to control reflects an anxiolytic effect (Bourin and Hascoet, 2003). Adult male Long Evans rats are administered AVN251 (0.1-2 mg/kg) by oral gavage 90 min prior to testing in a light/dark shuttle box.

[2] = difference score (Post-Pretest), daily i.p. for 28 days

T1 sequence (P37288 whole entry): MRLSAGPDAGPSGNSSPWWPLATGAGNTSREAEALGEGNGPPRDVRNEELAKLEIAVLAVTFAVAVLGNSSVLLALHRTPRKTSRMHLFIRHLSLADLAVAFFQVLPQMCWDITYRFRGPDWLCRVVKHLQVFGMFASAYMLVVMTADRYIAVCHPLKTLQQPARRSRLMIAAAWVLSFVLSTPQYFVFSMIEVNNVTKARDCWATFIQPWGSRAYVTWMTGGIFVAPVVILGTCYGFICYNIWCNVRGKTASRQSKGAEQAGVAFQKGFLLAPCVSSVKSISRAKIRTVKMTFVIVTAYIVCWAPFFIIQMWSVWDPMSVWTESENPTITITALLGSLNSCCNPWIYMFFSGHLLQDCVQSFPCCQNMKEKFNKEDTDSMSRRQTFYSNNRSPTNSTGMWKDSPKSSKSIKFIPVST

CNC1=Nc2ccc(Cl)cc2C(c2ccccc2)=[N+]([O-])C1 [CDP, chlordiazepoxide]
effect on social interaction deficits after chronic subordination (C57Bl/6J males; 28-day treatment): no effect | Distance (traveled in the interaction zone) (C57Bl/6J males; [2]): 1.0 ± 5 | Time (in the interaction zone) (C57Bl/6J males; [2]): 0.0 ± 5

C[C@@H](NC(=O)[C@@H](CC(=O)N1CCC(N2CCCCC2)CC1)N1C(=O)[C@@H](N2C(=O)OC[C@@H]2c2ccccc2)[C@H]1/C=C/c1ccccc1)c1ccccc1 [Example 224, 2(R)-[[4-(Piperidinyl)piperidinyl]carbonylmethyl]-2-[3(S)-(4(S)-phenyloxazolidin-2-on-3-yl)-4(R)-(2-styryl)azetidin-2-on-1-yl]acetic acid N—[(R)-α-methylbenzyl]amide]
BOLD activation signal in anterior cingulate cortex and medial prefrontal cortex (human brain; posttreatment, angry faces versus happy faces): significantly decreases | BOLD activation signal in temporoparietal cortex (Brodmann Area 39) and amygdala (human brain; posttreatment, angry faces versus happy faces, p<0.05): significantly decreases | BOLD activation signal in temporoparietal cortex (Brodmann Area 39) and amygdala (human brain; pretreatment, angry faces versus fixation point, p<0.001): significantly decreases | BOLD activation signal in medial prefrontal cortex (human brain; pretreatment, angry faces versus fixation point, p<0.005): significantly decreases | cortical reactivity to angry faces in anterior cingulate cortex and medial superior prefrontal cortex (human brain; pretreatment): significantly attenuated | stress/arousal response in amygdala, cortex, hippocampus and thalamus (awake rats; listed as AVN246): blocked the stress/arousal response | T1/2 (Pharmacokinetics): improved | accumulation (Pharmacokinetics): 1.7 fold

CN(Cc1cccc(C(F)(F)F)c1)C(=O)[C@@H](CC(=O)N1CCC(N2CCCCC2)CC1)N1C(=O)[C@@H](N2C(=O)OC[C@@H]2c2ccccc2)[C@H]1/C=C/c1ccccc1 [Example 225, 2(R)-[[4-(Piperidinyl)piperidinyl]carbonylmethyl]-2-[3(S)-(4(S)-phenyloxazolidin-2-on-3-yl)-4(R)-(2-styryl)azetidin-2-on-1-yl]acetic acid N-methyl-N-(3-trifluoromethylbenzyl)amide]
Ki (human V1a receptor; 3H-AVP competition, CHO cells expressing human V1a, read-out: V1a Ki): 660 pM | Ki (human V1a receptor; receptor selectivity table, read-out: inhibition data Ki, V1a): 660 pM | activation of vasopressin receptor signaling in brain scans (FIG. 4 vs FIG. 3) (awake rats; amygdala, cortex, hippocampus, thalamus, mate+intruder): lower activation of vasopressin receptor signaling than the untreated controls | stress/arousal response in amygdala, cortex, hippocampus and thalamus (awake rats; listed as AVN251): blocked the stress/arousal response | anxiety compared to vehicle ([1]; 0.1-2 mg/kg oral gavage 90 min prior to testing): dose dependent decrease in anxiety | light-dark entries (FIG. 6C) ([1]; 1 or 2 mg/kg): more light-dark entries | time in the dark (FIG. 6B) ([1]; 1 or 2 mg/kg, p<0.01): less time in the dark | time in the light (FIG. 6A) ([1]; 1 or 2 mg/kg, p<0.01): more time in the light

CNCCC(Oc1ccc(C(F)(F)F)cc1)c1ccccc1 (stereo not drawn) [fluoxetine, reference compound]
sexual motivation / mesocorticolimbic dopamine reward system activation (awake rats; presentation of novel receptive female): markedly diminishes activation of this circuit | stress circuit activation (BOLD), mate plus intruder (awake rats; resident male rats, 5 mg/kg oral gavage): decreased activation of both the stress circuits and the mesocorticolimbic dopamine reward system
